Measured values taken from publication PMC9319939, “Siccanin Is a Dual-Target Inhibitor of Plasmodium falciparum Mitochondrial Complex II and Complex III” (Pharmaceuticals, 2022).
Read-outs that look alike come from different tables or passages of the source.

Legend:
[1] = tested on: P. falciparum 3D7; assay: Drug sensitivity assay, 72 h, PfLDH-based; assay type: cell-based; conditions: Plasmodium falciparum, 3D7; Figure 6b; read-out: Growth inhibition EC50, 3D7
Procedure: The P. falciparum 3D7 strain was cultured, as described previously, in 3% hematocrit type A human red blood cells (RBCs) in RPMI1640 medium (Invitrogen; San Diego, CA, USA) supplemented with 25 mM sodium hydrogen biocarbonate, 10 μg/mL hypoxanthine, 40 μg/mL gentamicin sulfate, and 0.5% (w/v) Albumax II (Invitrogen) (“complete medium”). Cultures were maintained in a MG-70M multi-gas incubator (Taitec) under the conditions of 5% O2, 5% CO2, and 90% N2 at 37 °C. The medium was replaced daily. Parasitemia was measured by thin blood smears stained with Giemsa. In our previous study, we generated mutant P. falciparum strains expressing either disrupted or full-length versions of the flavoprotein (Fp) subunit (encoded by the Pfsdha gene). Both strains were cultured in complete medium at 3% hematocrit supplemented with 5 nM WR99210 (Jacobus Pharmaceuticals; Plainsboro, NJ, USA). The experiments using human RBCs were performed under the guidelines of Research Ethics Committee of the Faculty of Medicine of the University of Tokyo and Institutional Review Board (IRB) of Nagasaki University (Permission nos. 10050 and no. 19, respectively). Human RBCs were obtained from The Japanese Red Cross Society. The synchronization of parasite cultures was performed by treating with 5% (w/v) sorbitol for 10 min [77].
(§1) Synchronized ring-form parasites (0.3% parasitemia) were prepared in complete medium containing different concentration of various compounds (at a fixed final DMSO concentration of 0.1% (v/v)) and distributed to 96-well plates at 100 μL/well. After 72 h of incubation, parasite growth was monitored by the previously described lactate dehydrogenase (PfLDH)-based assay method; plates were read using a SpectraMax® Paradigm spectrophotometer (Molecular Devices, Inc.; San Jose, CA, USA). EC50 values were calculated using Prism® ver.6.01 (GraphPad; San Diego, CA, USA). Values are presented as the means of three independent experiments.

[2] = tested on: P. falciparum 3D7-yDHODH; assay: Growth inhibition of yeast DHODH-expressing strain; assay type: cell-based; conditions: Plasmodium falciparum, 3D7, read-out: Growth inhibition EC50, 3D7-yDHODH
Procedure: P. falciparum 3D7-yDHODH was prepared and maintained as described previously. P. falciparum Dd2, and Dd2-derived mutant strains were kindly provided by David A. Fidock, and maintained at Nagasaki University essentially as described in reference, except without supplementation with WR99210.
as §1

[3] = tested on: Mammal complex II; conditions: read-out: Complex II IC50, Mammal, cited from earlier work
[4] = tested on: Plasmodium spp. complex II; conditions: cited from earlier work; for Effect on Plasmodium mitochondrial complex II: classical ubiquinone-site inhibitors, ref [30], [14]
[5] = tested on: Plasmodium spp. complex II; assay: Plasmodium spp. complex II inhibition (literature values); assay type: biochemical; conditions: ratio between mammalian and Plasmodium complex II IC50s
Text: Table 1 Selectivity of classical complex II inhibitor against Plasmodium spp. and mammal complex II. | column: Selectivity ^a

| Compound | EC50 [1] | EC50 [2] | IC50 ([3]; ref Miyadera et al. [29]) | Effect on Plasmodium mitochondrial complex II [4] | IC50 ([4]; ref Kawahara et al. [14]) | Selectivity [5] | IC50 ([3]; ref Mogi et al. [34]) | IC50 ([4]; ref Suraveratum et al. [30]) |
| --- | --- | --- | --- | --- | --- | --- | --- | --- |
| O=C1C(O)=C([C@H]2CC[C@H](c3ccc(Cl)cc3)CC2)C(=O)c2ccccc21 [Atovaquone] | 0.00056 µM | > 0.1 µM | – | – | – | – | – | – |
| COc1[nH]c(=O)c(C(=O)[C@@H](C)C[C@H](C)[C@@H](Cl)CCl)c(O)c1OC [Atpenin A5] | – | – | 0.004 µM | ineffective | 4.6 ± 0.2 µM | 0.00087 | – | – |
| CC1=C(C(=O)Nc2ccccc2)SCCO1 [Carboxin] | – | – | 1 µM | ineffective | 3.6 ± 1 µM | 0.28 | – | – |
| O=C(O)CC(=O)O [Malonate] | – | – | – | – | – | 0.26 | 3.4 µM | 13.2 ± 0.49 µM |
| O=C(CC(=O)C(F)(F)F)c1cccs1 [TTFA, 2-thenoyltrifluoroacetone] | – | – | 5.4 µM | ineffective | – | <0.11 | – | > 50 µM |
